Data: patent publication US20060004195A1, “Alpha,beta-unsaturated esters and acids by stereoselective dehydration” (priority 2004, published 2006)

Row | Structure (SMILES) | melting point [°C]
1 | COc1ccc(-n2nc(C[C@H](C(=O)[O-])c3cccc(C)c3)cc2-c2ccc(Cl)c(Cl)c2)cc1.[Na+] (stereo in doubt) | 295.5 to 297.5
2 | O=C(O)/C(=C\c1cc(-c2ccc3c(c2)OCO3)n(-c2cc(Cl)ccc2Cl)n1)c1cccc(Cl)c1 [Example 606, (Z)-3-[5-Benzo[1,3]dioxol-5-yl-1-(2,5-dichloro-phenyl)-1H-pyrazol-3-yl]-2-(3-chloro-phenyl)-acrylic acid] | 174
